# Results reported in patent US5659049A, “Antioxidant, antiphospholipase derivatives of ricinoleic acid” (Virginia Commonwealth University, priority 1995, dated 1997).
# pIC50: −log10 of the molar value. Counter-ions that a name gives are not always drawn.
# Tests used:
# [1] = Oxidation of arachidonic acid (decreased turbidity and hydroperoxide formation)
# [2] = Anti-oxidant activity (comparative Table 6); settings: read-out: IC-50 Anti-Oxidant Activity; nd = not detectable at ≤ 500 uM
# PLA2 = assay: Anti-PLA2 activity (comparative Table 6); format: biochemical; settings: nd = not detectable at ≤ 500 uM; read-out: IC-50 Anti-PLA2 Activity
# human synovial PLA2 = molecular target: T1, human synovial PLA2 (Homo sapiens, UniProt P14555); assay: Inhibition of human synovial PLA2 activity in vitro; format: biochemical; settings: for pIC50: each compound prepared as a sodium salt, FIG. 9, approximately
# T1 construct: from tissue; host or cells: human synovial (fluid)
# T1 sequence (P14555 21-144): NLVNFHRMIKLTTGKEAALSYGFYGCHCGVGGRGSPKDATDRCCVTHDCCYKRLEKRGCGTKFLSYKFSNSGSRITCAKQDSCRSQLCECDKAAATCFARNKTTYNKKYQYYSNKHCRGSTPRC
# Description: FIG. 9 is a graph illustrating the ability of the compounds of the invention to inhibit PLA2 activity in vitro.
# [3] = Auto-oxidation of phosphatidylethanolamine; format: biochemical; settings: for % Oxidized PE / % Unoxidized PE: 24 hrs; for % Oxidized PE: PE alone 39.3%; for % Unoxidized PE: PE alone 51.1%
# [4] = molecular target: T2, human synovial fluid PLA2 (SF-PLA2) (Homo sapiens, UniProt P14555); assay: Human SF-PLA2 induced mouse paw edema, oral administration; format: in vivo; settings: for % Increase Weight: control 61%
# T2 construct: intra-articular injection of human synovial fluid PLA2 (SF-PLA2) into the mouse paw; from tissue; host or cells: human synovial fluid
# T2 sequence (P14555 21-144): T1 sequence (P14555 21-144)
# Method: The mouse paw edema is inhibited in dose related fashion by increasing concentrations of RISE-1 given orally 1.0 hours before induction of the edema by SF-PLA2.
# [5] = tested on: human polymorphonuclear leukocytes (PMNs); assay: Inhibition of arachidonic acid release from prelabelled human PMNs; settings: Leukocyte, read-out: % Inhibition of arachidonic acid release
# platelet PLA2 = molecular target: T3, platelet PLA2 (Homo sapiens, UniProt P14555); assay: In vitro inhibition of PLA2 derived from platelets (FIG. 8); format: biochemical
# T3 construct: from tissue; host or cells: platelets
# T3 sequence (P14555 21-144): T1 sequence (P14555 21-144)
# [6] = tested on: rat adjuvant induced arthritis; assay: Rat adjuvant induced arthritis; settings: in vivo
# human plasma PLA2 = molecular target: T4, human plasma PLA2 (Homo sapiens, UniProt P14555); assay: In vitro inhibition of PLA2 derived from plasma (FIG. 8); format: biochemical
# T4 construct: from tissue; host or cells: human plasma
# T4 sequence (P14555 21-144): T1 sequence (P14555 21-144)
# sperm PLA2 = assay: In vitro inhibition of PLA2 derived from sperm (FIG. 8); format: biochemical, human
# [7] = RISE-1 10 mg/kg orally 1.0 hours before SF-PLA2
# [8] = RISE-1 30 mg/kg orally 1.0 hours before SF-PLA2
# [9] = RISE-1 100 mg/kg orally 1.0 hours before SF-PLA2
compound,measurement,setting,value
"Cc1cc(C(C)(C)C)c(O)c(C(C)(C)C)c1 [BHT, betahydroxytoluene, reference compound]",Turbidity (430 nm),"[1]; 100 uM, time 0 hrs, control 1.38",1.31
same,Hydroperoxide,"[1]; 100 uM, time 0 hrs, control 100",119 nmols
same,Hydroperoxide,"[1]; 100 uM, time 24 hrs, control 378",112 nmols
same,Turbidity (430 nm),"[1]; 100 uM, time 24 hrs, control .387",1.283
CCCCCCC(C/C=C\CCCCCCCC(=O)O)OC(=O)/C=C/C(=O)O (centres unmarked) [PX-2],pIC50,[2],< 3.30
same,pIC50,PLA2,< 3.30
"CCCCCCCC/C=C\CCCCCCCC(=O)OC(C/C=C\CCCCCCCC(=O)O)CCCCCC (centres unmarked) [PX-3, Ricinoleic Acid Oleic Acid Ester]",pIC50,human synovial PLA2,5.00 to 5.30
same,pIC50,[2],< 3.30
same,pIC50,PLA2,5.14
same,Percent Protection,[3]; 25 μM,16%
same,Percent Protection,[3]; 50 μM,16%
same,Percent Protection,[3]; 100 μM,13%
same,Percent Protection,[3]; 250 μM,22%
same,Percent Protection,[3]; 500 μM,27%
"CCCCC/C=C\C/C=C\CCCCCCCC(=O)OC(C/C=C\CCCCCCCC(=O)O)CCCCCC (centres unmarked) [PX-4, Ricinoleic Acid Linoleic Acid Ester]",pIC50,human synovial PLA2,5.00 to 5.30
same,pIC50,[2],3.68
same,pIC50,PLA2,5.00
same,Percent Protection,[3]; 25 μM,13%
same,Percent Protection,[3]; 50 μM,22%
same,Percent Protection,[3]; 100 μM,38%
same,Percent Protection,[3]; 250 μM,53%
same,Percent Protection,[3]; 500 μM,73%
"CCCCCCCC/C=C\CCCCCCCCOC(=O)CCCCCCC/C=C\CC(CCCCCC)OC(=O)/C=C/C(=O)O (centres unmarked) [PX-5, Oleyl Alcohol-Ricinoleate-Fumaric Acid Diester]",pIC50,human synovial PLA2,5.00 to 5.30
same,pIC50,[2],3.52
same,pIC50,PLA2,5.30
same,Percent Protection,[3]; 25 μM,28%
same,Percent Protection,[3]; 50 μM,24%
same,Percent Protection,[3]; 100 μM,31%
same,Percent Protection,[3]; 250 μM,47%
same,Percent Protection,[3]; 500 μM,62%
CCCCCCC(O)C/C=C\CCCCCCCC(=O)OC(C/C=C\CCCCCCCC(=O)O)CCCCCC (centres unmarked) [PX-6],pIC50,[2],3.52
same,pIC50,PLA2,5.35
"CCCCCCC(C/C=C\CCCCCCCC(=O)O)OC(=O)/C=C/C(=O)OC(C/C=C\CCCCCCCC(=O)O)CCCCCC (centres unmarked) [PX-7, Diricinoleic Acid Fumarate Diester]",pIC50,[2],3.89
same,pIC50,PLA2,5.15
CCCCCCCC/C=C\CCCCCCCCOC(=O)CCCCCCC/C=C\CC(CCCCCC)OC(=O)/C=C\C(=O)O (centres unmarked) [PX-8],pIC50,[2],3.85
same,pIC50,PLA2,5.46
"CCCCCCCC/C=C\CCCCCCCC(=O)OCC(COC(=O)CCCCCCC/C=C\CCCCCCCC)(COC(=O)CCCCCCC/C=C\CCCCCCCC)NCCS(=O)(=O)O [PX-13, TES Triolears]",ED50,"[4]; mouse, po, administered single dose orally, read-out: IC50 vs PLA2 induced mouse paw edema",~15 mg/kg
CCCCC/C=C\C/C=C\CCCCCCCC(=O)OCC(N)(COC(=O)CCCCCCC/C=C\C/C=C\CCCCC)COC(=O)CCCCCCC/C=C\C/C=C\CCCCC [PX-14],pIC50,[2],4.15
same,pIC50,PLA2,5.36
CCCCC/C=C\C/C=C\CCCCCCCC(=O)OCC1(COC(=O)CCCCCCC/C=C\C/C=C\CCCCC)COC(=O)CN1C(=O)CCCCCCC/C=C\C/C=C\CCCCC [PX-15],pIC50,[2],< 3.30
"CCCCCCC(C/C=C\CCCCCCCC(=O)O)OC(=O)CCCCCCCCC(=O)O (centres unmarked) [RISE-1, Ricinoleic Acid Sebacyl Ester]",inhibition at 25 µM,[5],0%
same,inhibition at 50 µM,[5],19%
same,inhibition at 75 µM,[5],38%
same,inhibition at 100 µM,[5],72%
same,% Protection,[4]; [7],23%
same,% Increase Weight,[4]; [7],47%
same,% Protection,[4]; [8],38%
same,% Increase Weight,[4]; [8],38%
same,% Protection,[4]; [9],49%
same,% Increase Weight,[4]; [9],31%
same,Inhibition of PLA2 derived from human synovial fluid,human synovial PLA2; FIG. 8,"dose related, selective in vitro inhibition"
same,pIC50,human synovial PLA2,5.00 to 5.30
same,Turbidity (430 nm),"[1]; 25 uM, time 0 hrs, control 1.38",1.33
same,Hydroperoxide,"[1]; 25 uM, time 0 hrs, control 100",109 nmols
same,Hydroperoxide,"[1]; 25 uM, time 24 hrs, control 378",437 nmols
same,Turbidity (430 nm),"[1]; 25 uM, time 24 hrs, control .387",.524
same,Turbidity (430 nm),"[1]; 50 uM, time 0 hrs, control 1.38",1.47
same,Hydroperoxide,"[1]; 50 uM, time 0 hrs, control 100",109 nmols
same,Hydroperoxide,"[1]; 50 uM, time 24 hrs, control 378",428 nmols
same,Turbidity (430 nm),"[1]; 50 uM, time 24 hrs, control .387",.348
same,Inhibition of PLA2 derived from platelets,platelet PLA2,"dose related, selective in vitro inhibition"
same,Inhibition of rat adjuvant induced arthritis,[6],does not inhibit
same,Inhibition of PLA2 derived from plasma,human plasma PLA2,"dose related, selective in vitro inhibition"
same,Inhibition of PLA2 derived from sperm,sperm PLA2,"dose related, selective in vitro inhibition"
same,% Oxidized PE,[3]; 25 uM,42.0%
same,% Unoxidized PE,[3]; 25 uM,50.6%
same,% Oxidized PE,[3]; 100 uM,42.4%
same,% Unoxidized PE,[3]; 100 uM,49.6%
